# From patent publication US11524004B2, “Analogs of proxisome proliferator activated receptor (PPAR) agonists and methods of using the same” (The University of Toledo, priority 2013, dated 2022)
# Columns and labels:
# [1] = tested on: Human bone marrow-derived mesenchymal stem cells (MSCs); experiment: MSC osteogenesis assay: Alizarin Red S osteoblast mineralization, with concomitant assessment of fat cell formation; format: cell-based; settings: for osteogenic formation from MSCs: MSCs in osteogenic medium, test agent at 1, 2, 4, 10 or 20 μM every 2nd day for 21 days, Alizarin Red S; for profile of fat (AD) versus osteogenic (OS) effects during dose progression (bone should predominate): dose progression 1-20 μM
# Protocol: Human bone marrow-derived mesenchymal stem cells (MSCs) were taken through 2-3 passages and distributed across a 24 well plate at a density of 1×10^5 cells/cm^2. The plates were cultured in α-MEM with 20% FBS for 1 day at 37° C. On day 2 the medium was switched to osteogenic media (Stem X-Vivo, R&D System, Minneapolis, Minn.) containing 10% FBS plus 50 μg/ml ascorbic acid and 3 mM β-glycerol-phosphate. MSCs were cultured in the osteogenic medium without (vehicle negative control) or with test agents at 1, 2, 4, 10 or 20 μM supplied every 2nd day for 21 days. GW 0427 (standard PPAR ligand as positive control) was delivered by the same regimen on every plate to account for experimental variation.
# Plates were washed twice with ice-cold PBS and incubated in 50 mM Tris-HCl (pH 7.6). The cells were treated with 2% Alizarin Red S (pH 4.2) for 10 min and then washed with distilled water. Stained cells were visualized by phase-contrast microscopy to determine cell morphology and to verify the presence of mineralized nodules (red images). The intensities of the images were assessed by Image-Pro Analyzer (Media Cybernetics, Inc., Bethesda, Md.).
SMILES,osteogenic formation from MSCs [1],profile of fat (AD) versus osteogenic (OS) effects during dose progression (bone should predominate) ([1]; MSC assay),further results
"Cc1nc(-c2ccccc2)sc1CCOc1ccc(C=CC(=O)O)cc1 [BK-3-51, 4-[[4-Methyl-2-phenylthiazol-5-yl]methyl]methoxycinnamic Acid]",,,melting point: 209 to 211 °C
"Cc1nc(-c2ccc(C(F)(F)F)cc2)sc1CNc1ccc(C=CC(=O)O)cc1 [BK-4-03, 4-[N-[5-Methylene-4-methyl-2-[4-(trifluoromethyl)phenyl]thiazole]]aminocinnamic Acid]",Increased osteogenic formation,,
"Cc1nc(-c2ccc(C(F)(F)F)cc2)sc1CSc1ccc(C=CC(=O)O)cc1 [BK-4-04, 4-Thio-[5-methylene-4-methyl-2-[4-(trifluoromethyl)phenyl]thiazole]cinnamic Acid]",Increased osteogenic formation,,
"Cc1nc(-c2ccc(C(F)(F)F)cc2)sc1CN(C)c1ccc(C=CC(=O)O)cc1 [BK-4-15, 4-[N-Methyl-N-[5-methylene-4-methyl-2-[4-(trifluoromethyl)phenyl]thiazole]]aminocinnamic Acid]",Increased osteogenic formation,most preferred profile,
"Cc1nc(-c2ccc(C(F)(F)F)c(F)c2)sc1CNc1ccc(C=CC(=O)O)cc1 [BK-4-30, 4-[N-[5-methylene-4-methyl-2-[3-fluoro-4-(trifluoromethyl)phenyl]thiazole]]aminocinnamic Acid]",,not as suitable,
"Cc1cc(SCc2sc(-c3ccc(C(F)(F)F)c(F)c3)nc2C)ccc1OCC(=O)O [GW0742, reference compound]",,initially demonstrates such a preference,"OS activity as dose range continued to 10 and 20 uM ([1]; MSC assay, 10 and 20 uM, estimated, averaged effects): decreased"
"Cc1nc(-c2ccc(C(F)(F)F)c(F)c2)sc1COc1ccc(C=CC(=O)O)cc1 [JM-4-57, 4-[Oxo-[5-methylene-4-methyl-2-[3-fluoro-4-(trifluromethyl)phenyl]thiazole]]cinnamic Acid]",Increased osteogenic formation,,"concentration at which osteogenic activity peaks ([1]; MSCs, 21 days, doses 1-20 μM): 10 µM"
